Laboratory results taken from PubChem BioAssay AID1963974 (Molecular Pharmacology Branch, DTP, NCI, 2024).

System: 648629-189-R-J1-PDC spheroids with HUVEC/MSC, viability
Assay: Anticancer human tumor 648629-189-R-J1-PDC patient-derived bladder carcinoma cell line growth inhibition [PI3K]
Conditions: for IC50: curve of first compound; for viability, T/C: stronger effect = lower value; active = viability on the fitted dose curve at most 10% of control; inactive = the rest
Method in brief: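 Viability of mixed-cell spheroids was determined after exposure to pairwise combinations, one partner being inavolisib, alpelisib, duvelisib or copanlisib. Highest tested concentration matched clinical Cmax where known and 10 microM where not, descending in half-log steps.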

[1] = second compound 0.00316 µM, first compound 0.0316 µM
[2] = second compound 0.00316 µM, first compound 0.1 µM
[3] = second compound 0.00316 µM, first compound 0.316 µM
[4] = second compound 0.00316 µM, first compound 1 µM
[5] = second compound 0.00316 µM, first compound 3.16 µM
[6] = second compound 0.00316 µM, first compound 10 µM
[7] = second compound 0.01 µM, first compound 0.0316 µM
[8] = second compound 0.01 µM, first compound 0.1 µM
[9] = second compound 0.01 µM, first compound 0.316 µM
[10] = second compound 0.01 µM, first compound 1 µM
[11] = second compound 0.01 µM, first compound 3.16 µM
[12] = second compound 0.01 µM, first compound 10 µM
[13] = second compound 0.0316 µM, first compound 0.0316 µM
[14] = second compound 0.0316 µM, first compound 0.1 µM
[15] = second compound 0.0316 µM, first compound 0.316 µM
[16] = second compound 0.0316 µM, first compound 1 µM
[17] = second compound 0.0316 µM, first compound 3.16 µM
[18] = second compound 0.0316 µM, first compound 10 µM
[19] = second compound 0.1 µM, first compound 0.0316 µM
[20] = second compound 0.1 µM, first compound 0.1 µM
[21] = second compound 0.1 µM, first compound 0.316 µM
[22] = second compound 0.1 µM, first compound 1 µM
[23] = second compound 0.1 µM, first compound 3.16 µM
[24] = second compound 0.1 µM, first compound 10 µM
[25] = second compound 0.316 µM, first compound 0.0316 µM
[26] = second compound 0.316 µM, first compound 0.1 µM
[27] = second compound 0.316 µM, first compound 0.316 µM
[28] = second compound 0.316 µM, first compound 1 µM
[29] = second compound 0.316 µM, first compound 3.16 µM
[30] = second compound 0.316 µM, first compound 10 µM
[31] = second compound 1 µM, first compound 0.0316 µM
[32] = second compound 1 µM, first compound 0.1 µM
[33] = second compound 1 µM, first compound 0.316 µM
[34] = second compound 1 µM, first compound 1 µM
[35] = second compound 1 µM, first compound 3.16 µM
[36] = second compound 1 µM, first compound 10 µM
[37] = second compound 0.00316 µM, first compound 0.00316 µM
[38] = second compound 0.00316 µM, first compound 0.01 µM
[39] = second compound 0.01 µM, first compound 0.00316 µM
[40] = second compound 0.01 µM, first compound 0.01 µM
[41] = second compound 0.0316 µM, first compound 0.00316 µM
[42] = second compound 0.0316 µM, first compound 0.01 µM
[43] = second compound 0.1 µM, first compound 0.00316 µM
[44] = second compound 0.1 µM, first compound 0.01 µM
[45] = second compound 0.316 µM, first compound 0.00316 µM
[46] = second compound 0.316 µM, first compound 0.01 µM
[47] = second compound 1 µM, first compound 0.00316 µM
[48] = second compound 1 µM, first compound 0.01 µM
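Note: spheroids exposed to agents for seven days before reading.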
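Throughout, for viability, T/C: percent of vehicle control luminescence where 100% = DMSO treated spheroids.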

CC(C)NCC(C(=O)N1CCN(c2ncnc3c2C(C)CC3O)CC1)c1ccc(Cl)cc1 (stereo not given) + CC(Nc1ccc2c(c1)OCCn1cc(N3C(=O)OCC3C(F)F)nc1-2)C(N)=O
0.437 µM: IC50 (second compound 1 µM)
1.15 µM: IC50 (second compound 0.1 µM)
0.87 µM: IC50 (second compound 0.0316 µM)
1.01 µM: IC50 (second compound 0.01 µM)
1.28 µM: IC50 (second compound 0.00316 µM)
inactive: viability, T/C [1] 110% | viability, T/C [2] 97.4% | viability, T/C [3] 91.8% | viability, T/C [4] 54.9% | viability, T/C [5] 27.3% | viability, T/C [6] 13.5% | viability, T/C [7] 95.5% | viability, T/C [8] 105% | viability, T/C [9] 81% | viability, T/C [10] 50.2% | viability, T/C [11] 26.8% | viability, T/C [12] 16.2% | viability, T/C [13] 90.1% | viability, T/C [14] 99.3% | viability, T/C [15] 77.7% | viability, T/C [16] 44.5% | viability, T/C [17] 27.1% | viability, T/C [18] 14% | viability, T/C [19] 82.7% | viability, T/C [20] 80.7% | viability, T/C [21] 78.2% | viability, T/C [22] 52.4% | viability, T/C [23] 25.3% | viability, T/C [24] 13.6% | viability, T/C [25] 83.1% | viability, T/C [26] 75.6% | viability, T/C [27] 63.8% | viability, T/C [28] 41.3% | viability, T/C [29] 24.6% | viability, T/C [30] 14.2% | viability, T/C [31] 65.2% | viability, T/C [32] 67.8% | viability, T/C [33] 56.6% | viability, T/C [34] 32.2% | viability, T/C [35] 19% | viability, T/C [36] 12.6%
0.645 µM: IC50 (second compound 0.316 µM)

CCN1CCN(Cc2ccc(Nc3ncc(F)c(-c4cc(F)c5nc(C)n(C(C)C)c5c4)n3)nc2)CC1 + CC(Nc1ccc2c(c1)OCCn1cc(N3C(=O)OCC3C(F)F)nc1-2)C(N)=O
inactive: viability, T/C [37] 105% | viability, T/C [38] 98.8% | viability, T/C [1] 105% | viability, T/C [2] 113% | viability, T/C [3] 118% | viability, T/C [4] 119% | viability, T/C [39] 95.5% | viability, T/C [40] 102% | viability, T/C [7] 110% | viability, T/C [8] 110% | viability, T/C [9] 113% | viability, T/C [10] 107% | viability, T/C [41] 105% | viability, T/C [42] 99.2% | viability, T/C [13] 112% | viability, T/C [14] 95.8% | viability, T/C [15] 121% | viability, T/C [16] 124% | viability, T/C [43] 96.4% | viability, T/C [44] 104% | viability, T/C [19] 102% | viability, T/C [20] 105% | viability, T/C [21] 109% | viability, T/C [22] 103% | viability, T/C [45] 85.5% | viability, T/C [46] 82.6% | viability, T/C [25] 99.9% | viability, T/C [26] 98.6% | viability, T/C [27] 90.7% | viability, T/C [28] 96.9% | viability, T/C [47] 70.8% | viability, T/C [48] 72.4% | viability, T/C [31] 64.3% | viability, T/C [32] 73.1% | viability, T/C [33] 87.8% | viability, T/C [34] 77.8%
> 1 µM: IC50 (second compound 0.00316 µM) | IC50 (second compound 0.01 µM) | IC50 (second compound 0.0316 µM) | IC50 (second compound 0.1 µM) | IC50 (second compound 0.316 µM) | IC50 (second compound 1 µM)

Cn1ncc(Cl)c1-c1cc(C(=O)NC(CN)Cc2cccc(F)c2)sc1Cl (stereo not given) + CC(Nc1ccc2c(c1)OCCn1cc(N3C(=O)OCC3C(F)F)nc1-2)C(N)=O
0.27 µM: IC50 (second compound 0.1 µM)
inactive: viability, T/C [1] 97% | viability, T/C [2] 87.4% | viability, T/C [3] 50.5% | viability, T/C [4] 30.1% | viability, T/C [5] 20.2% | viability, T/C [6] 102% | viability, T/C [7] 88.8% | viability, T/C [8] 91% | viability, T/C [9] 56.1% | viability, T/C [10] 32.6% | viability, T/C [11] 17.5% | viability, T/C [12] 94.3% | viability, T/C [13] 98% | viability, T/C [14] 80.4% | viability, T/C [15] 55.1% | viability, T/C [16] 30.8% | viability, T/C [17] 19.4% | viability, T/C [18] 99.7% | viability, T/C [19] 85.3% | viability, T/C [20] 72.9% | viability, T/C [21] 47.4% | viability, T/C [22] 27.5% | viability, T/C [23] 14.8% | viability, T/C [24] 89% | viability, T/C [25] 79.9% | viability, T/C [26] 61.5% | viability, T/C [27] 47.5% | viability, T/C [28] 24% | viability, T/C [29] 15.7% | viability, T/C [30] 72.2% | viability, T/C [31] 56.2% | viability, T/C [32] 62.1% | viability, T/C [33] 37.3% | viability, T/C [34] 22.6% | viability, T/C [35] 13.2% | viability, T/C [36] 67%
> 10 µM: IC50 (second compound 0.00316 µM) | IC50 (second compound 0.0316 µM)
0.766 µM: IC50 (second compound 0.01 µM)
0.209 µM: IC50 (second compound 0.316 µM)
0.162 µM: IC50 (second compound 1 µM)

Cn1nccc1Nc1nccc(-c2ccn(C(CO)c3ccc(Cl)c(F)c3)c(=O)c2)n1 (stereo not given) + CC(Nc1ccc2c(c1)OCCn1cc(N3C(=O)OCC3C(F)F)nc1-2)C(N)=O
inactive: viability, T/C [1] 103% | viability, T/C [2] 105% | viability, T/C [3] 111% | viability, T/C [4] 109% | viability, T/C [5] 109% | viability, T/C [6] 79.3% | viability, T/C [7] 111% | viability, T/C [8] 93% | viability, T/C [9] 102% | viability, T/C [10] 108% | viability, T/C [11] 105% | viability, T/C [12] 81.2% | viability, T/C [13] 107% | viability, T/C [14] 101% | viability, T/C [15] 97.4% | viability, T/C [16] 103% | viability, T/C [17] 106% | viability, T/C [18] 79.1% | viability, T/C [19] 97.2% | viability, T/C [20] 97.5% | viability, T/C [21] 84.9% | viability, T/C [22] 103% | viability, T/C [23] 85.1% | viability, T/C [24] 73% | viability, T/C [25] 82.1% | viability, T/C [26] 86% | viability, T/C [27] 82.7% | viability, T/C [28] 99.8% | viability, T/C [29] 78.3% | viability, T/C [30] 68.8% | viability, T/C [31] 66.2% | viability, T/C [32] 67% | viability, T/C [33] 70.3% | viability, T/C [34] 76.3% | viability, T/C [35] 73% | viability, T/C [36] 62.3%
> 10 µM: IC50 (second compound 0.00316 µM) | IC50 (second compound 0.01 µM) | IC50 (second compound 0.0316 µM) | IC50 (second compound 0.1 µM) | IC50 (second compound 0.316 µM) | IC50 (second compound 1 µM)

Cn1ncnc1[C@H]1c2n[nH]c(=O)c3cc(F)cc(c23)N[C@@H]1c1ccc(F)cc1 + CC(Nc1ccc2c(c1)OCCn1cc(N3C(=O)OCC3C(F)F)nc1-2)C(N)=O
> 0.1 µM: IC50 (second compound 0.00316 µM) | IC50 (second compound 0.01 µM) | IC50 (second compound 0.0316 µM) | IC50 (second compound 0.1 µM) | IC50 (second compound 0.316 µM)
inactive: viability, T/C (second compound 0.00316 µM, first compound 0.000316 µM) 108% | viability, T/C (second compound 0.00316 µM, first compound 0.001 µM) 110% | viability, T/C [37] 102% | viability, T/C [38] 83.5% | viability, T/C [1] 75.6% | viability, T/C [2] 63.8% | viability, T/C (second compound 0.01 µM, first compound 0.000316 µM) 115% | viability, T/C (second compound 0.01 µM, first compound 0.001 µM) 106% | viability, T/C [39] 97.3% | viability, T/C [40] 86.4% | viability, T/C [7] 69.4% | viability, T/C [8] 62% | viability, T/C (second compound 0.0316 µM, first compound 0.000316 µM) 101% | viability, T/C (second compound 0.0316 µM, first compound 0.001 µM) 99.2% | viability, T/C [41] 96% | viability, T/C [42] 79.2% | viability, T/C [13] 82% | viability, T/C [14] 61.7% | viability, T/C (second compound 0.1 µM, first compound 0.000316 µM) 97.8% | viability, T/C (second compound 0.1 µM, first compound 0.001 µM) 93.4% | viability, T/C [43] 105% | viability, T/C [44] 77.5% | viability, T/C [19] 70.2% | viability, T/C [20] 55.3% | viability, T/C (second compound 0.316 µM, first compound 0.000316 µM) 76% | viability, T/C (second compound 0.316 µM, first compound 0.001 µM) 86.7% | viability, T/C [45] 73.3% | viability, T/C [46] 69.7% | viability, T/C [25] 60.9% | viability, T/C [26] 55.5% | viability, T/C (second compound 1 µM, first compound 0.000316 µM) 69.5% | viability, T/C (second compound 1 µM, first compound 0.001 µM) 60.5% | viability, T/C [47] 69.2% | viability, T/C [48] 66% | viability, T/C [31] 61% | viability, T/C [32] 44.4%
0.0683 µM: IC50 (second compound 1 µM)
